# According to PMC7339578, “Multiple circulating alkaloids and saponins from intravenous Kang-Ai injection inhibit human cytochrome P450 and UDP-glucuronosyltransferase isozymes: potential drug–drug interactions” (Chinese Medicine, 2020):
# Where two headings read alike, the source gives them in different places.
# Columns and labels:
# [1] = test system: UGT2B7; parameters: method as in PMID 27916843; conditions: read-out: Ki towards UGT2B7; cited from earlier work
# [2] = test system: UGT1A8; conditions: cited from earlier work
# [3] = Biliary (hepatobiliary) excretion in rats after a 30-min infusion of Kang-Ai injection; format: in vivo, Sprague–Dawley rats; conditions: rat bile 0–12 h; Kang-Ai injection 6 mL/kg iv
# How it was run: (§1)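 Urine collected in metabolic cages at 0–4, 4–8, 8–12 h and bile at 0–3, 3–6, 6–9, 9–12 h after infusion start, weighed and frozen at −80 °C. Non-compartmental analysis; CLR and CLB as cumulative urinary or biliary amount divided by plasma AUC0-∞, fe-U and fe-B as cumulative amount/dose; mean ± SD (n = 3).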
# [4] = Plasma pharmacokinetics in rats after a 30-min intravenous infusion of Kang-Ai injection; format: in vivo, Sprague–Dawley rats; conditions: male, Sprague-Dawley, in vivo
# How it was run: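 Fasted male Sprague–Dawley rats (250 ± 20 g) got a single 30-min tail-vein infusion of Kang-Ai injection at 6 mL/kg. Jugular blood was sampled from 5 min to 12 h for plasma. Parameters came from non-compartmental analysis (trapezoidal AUC), n = 3.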
# [5] = Stability tests of analytes in rat plasma QC samples; format: in vitro ADME; conditions: rat plasma
# Description: […] The dilution integrity was investigated by analyzing six replicate samples with each analyte, and each analyte were diluted 10-fold with blank rat matrix. Furthermore, the diluted samples were analyzed using freshly prepared calibration curve to calculate RE and RSD, which should be no more than ± 15% as criterion.
# [6] = Urinary (renal) excretion in rats after a 30-min infusion of Kang-Ai injection; format: in vivo, Sprague–Dawley rats; conditions: Kang-Ai injection 6 mL/kg iv; for CL renal: male, Sprague-Dawley, rat, read-out: CLR (renal excretory clearance) (converted); for fe-U,0–12h (fraction of dose excreted into urine): rat urine 0–12 h
# How it was run: as §1
# [7] = Protein binding assay (equilibrium dialysis); format: in vitro ADME, rat
# Description: Binding of circulating alkaloids and saponins to rat plasma was measured by equilibrium dialysis using Spectra/Por 2 dialysis membranes (molecular weight cutoff, 12–14 kDa; Rancho Dominguez, CA, USA) as described. After equilibrating for 24 h at 55 rpm and 37 °C, the dialysate and the plasma were sampled for analysis. […] The concentrations of tested matrine, oxysophocarpine and oxymatrine were 2 μmol/L, while those of astragaloside IV, III, and ginsenosides Rh1, Rg2, Rg1, Rf, Re, Rd, Rc, Rb1, Rb2, notoginsenosides R1, R2, were 4 μmol/L. The unbound fraction (fu-plasma) in rat plasma was calculated as follow: fu-plasma = Cd/Cp × 100%, where the Cd and Cp values were the concentrations of each analyte in the dialysate sample and in the post-dialysis plasma sample, respectively.
Compound,"fe-B,0–12h (fraction of dose excreted into bile) [3] [%]","At -80 °C for 48 h, Mean±SD ([5]; nominal conc. 20 nM) [nM]","At -80 °C for 48 h, RE ([5]; nominal conc. 20 nM) [%]","Extracted samples at 8 °C for 18 h, Mean±SD ([5]; nominal conc. 20 nM) [nM]","Extracted samples at 8 °C for 18 h, RE ([5]; nominal conc. 20 nM) [%]","Short-term stability at room temperature for 6 h, Mean±SD ([5]; nominal conc. 20 nM) [nM]","Short-term stability at room temperature for 6 h, RE ([5]; nominal conc. 20 nM) [%]","Three freeze-thaw cycles (-80 °C ↔ 23 °C), Mean±SD ([5]; nominal conc. 20 nM) [nM]","Three freeze-thaw cycles (-80 °C ↔ 23 °C), RE ([5]; nominal conc. 20 nM) [%]","At -80 °C for 48 h, Mean±SD ([5]; nominal conc. 100 nM) [nM]","At -80 °C for 48 h, RE ([5]; nominal conc. 100 nM) [%]","Extracted samples at 8 °C for 18 h, Mean±SD ([5]; nominal conc. 100 nM) [nM]","Extracted samples at 8 °C for 18 h, RE ([5]; nominal conc. 100 nM) [%]","Short-term stability at room temperature for 6 h, Mean±SD ([5]; nominal conc. 100 nM) [nM]","Short-term stability at room temperature for 6 h, RE ([5]; nominal conc. 100 nM) [%]","Three freeze-thaw cycles (-80 °C ↔ 23 °C), Mean±SD ([5]; nominal conc. 100 nM) [nM]","Three freeze-thaw cycles (-80 °C ↔ 23 °C), RE ([5]; nominal conc. 100 nM) [%]","At -80 °C for 48 h, Mean±SD ([5]; nominal conc. 400 nM) [nM]","At -80 °C for 48 h, RE ([5]; nominal conc. 400 nM) [%]","Extracted samples at 8 °C for 18 h, Mean±SD ([5]; nominal conc. 400 nM) [nM]",also measured
CC(C)(O)[C@@H]1CC[C@](C)([C@H]2[C@@H](O)C[C@@]3(C)[C@@H]4C[C@H](O)[C@H]5C(C)(C)[C@@H](O)CC[C@@]56C[C@@]46CC[C@]23C)O1 [cycloastragenol],–,–,–,–,–,–,–,–,–,–,–,–,–,–,–,–,–,–,–,–,Ki [1]: 21 µM; Ki [2]: 0.034 µM
"CC(C)=CCC[C@](C)(O)[C@H]1CC[C@]2(C)[C@@H]1[C@H](O)C[C@@H]1[C@@]3(C)CC[C@H](O)C(C)(C)[C@@H]3[C@@H](O[C@@H]3O[C@H](CO)[C@@H](O)[C@H](O)[C@H]3O)C[C@]12C [Compound C1, Ginsenoside Rh1]",9.71 ± 0.98,22.38 ± 0.33,13.76,20.79 ± 2.88,-12.72,20.81 ± 2.57,13.31,20.14 ± 2.50,-13.10,88.26 ± 1.17,-13.03,100.20 ± 11.08,12.81,92.25 ± 8.56,-13.70,99.91 ± 9.81,-10.86,379.88 ± 25.01,-9.26,424.42 ± 36.39,"Cmax ([4]; rat plasma, 30-min iv infusion of Kang-Ai injection 6 mL/kg, read-out: Cmax): 0.14 ± 0.0204 µM; half-life ([4]; rat plasma, 30-min iv infusion of Kang-Ai injection 6 mL/kg, read-out: t1/2 (converted)): 0.44 ± 0.39 h; clearance ([4]; rat, 30-min iv infusion of Kang-Ai injection 6 mL/kg, Table 1 unit, read-out: CLtot, p (converted)): 3.31 mL/min; Vd ([4]; rat, 30-min iv infusion of Kang-Ai injection 6 mL/kg, Table 1 unit, read-out: VSS): 0.0936 ± 0.0456 L; AUC(0-t) ([4]; rat, iv, rat plasma, 30-min iv infusion of Kang-Ai injection 6 mL/kg, read-out: AUC0–12h): 91.2 ± 4.77 nM·h; Extracted samples at 8 °C for 18 h, RE ([5]; nominal conc. 400 nM): 12.32%; Short-term stability at room temperature for 6 h, Mean±SD ([5]; nominal conc. 400 nM): 376.44 ± 26.61 nM; Short-term stability at room temperature for 6 h, RE ([5]; nominal conc. 400 nM): -12.62%; Three freeze-thaw cycles (-80 °C ↔ 23 °C), Mean±SD ([5]; nominal conc. 400 nM): 370.01 ± 38.18 nM; Three freeze-thaw cycles (-80 °C ↔ 23 °C), RE ([5]; nominal conc. 400 nM): -13.77%; CL renal ([6]; in vivo): 0.316 mL/min; fe-U,0–12h (fraction of dose excreted into urine) [6]: 9.59 ± 1.68%; fraction unbound at 24 h ([7]; rat plasma, equilibrium dialysis 24 h, 37 °C, 2 μmol/L alkaloids, 4 μmol/L saponins, read-out: fu-plasma (unbound fraction)): 0.463 ± 0.0503"
"CC(C)=CCC[C@](C)(O)[C@H]1CC[C@]2(C)[C@@H]1[C@H](O)C[C@@H]1[C@@]3(C)CC[C@H](O)C(C)(C)[C@@H]3[C@@H](O[C@@H]3O[C@H](CO)[C@@H](O)[C@H](O)[C@H]3O[C@@H]3O[C@@H](C)[C@H](O)[C@@H](O)[C@H]3O)C[C@]12C [Compound C5, Ginsenoside Rg2]",20.76 ± 3.37,19.84 ± 1.04,-6.64,21.07 ± 0.87,8.32,19.68 ± 2.51,12.85,21.26 ± 1.22,11.13,96.95 ± 8.62,-8.82,98.05 ± 6.29,-8.46,87.52 ± 0.79,-12.97,104.41 ± 11.32,12.73,410.70 ± 32.70,8.22,404.47 ± 42.95,"Cmax ([4]; rat, iv): 0.231 ± 0.0175 µM; clearance ([4]; rat, iv): 2.63 mL/min; half-life ([4]; rat, iv): 9.77 ± 13.7 h; AUC(0-t) ([4]; rat, iv, AUC0–12h): > 100 nM·h; Extracted samples at 8 °C for 18 h, RE ([5]; nominal conc. 400 nM): -10.83%; Short-term stability at room temperature for 6 h, Mean±SD ([5]; nominal conc. 400 nM): 361.60 ± 11.46 nM; Short-term stability at room temperature for 6 h, RE ([5]; nominal conc. 400 nM): -11.77%; Three freeze-thaw cycles (-80 °C ↔ 23 °C), Mean±SD ([5]; nominal conc. 400 nM): 374.05 ± 38.03 nM; Three freeze-thaw cycles (-80 °C ↔ 23 °C), RE ([5]; nominal conc. 400 nM): -12.71%; CL renal ([6]; urine and plasma): 0.0552 mL/min; fe-U,0–12h (fraction of dose excreted into urine) [6]: 2.23 ± 0.61%; fraction unbound at 24 h ([7]; rat, plasma): 0.265 ± 0.0328"
